{"source": "paper PMC9168620", "about": "“Genetic validation of Aspergillus fumigatus phosphoglucomutase as a viable therapeutic target in invasive aspergillosis” (The Journal of Biological Chemistry, 2022)", "key": {"AfPGMC353∗ [1]": {"target": "T1, AfPGMC353∗ (Aspergillus fumigatus, UniProt Q4WY53, C131S/C242S/C364S)", "T1 construct": "Full length AfPGM; 6His-GST (N, cleaved yes); made in house; host or cells: E. coli BL21 (DE3) pLysS", "T1 sequence (Q4WY53 whole entry C131S/C242S/C364S)": "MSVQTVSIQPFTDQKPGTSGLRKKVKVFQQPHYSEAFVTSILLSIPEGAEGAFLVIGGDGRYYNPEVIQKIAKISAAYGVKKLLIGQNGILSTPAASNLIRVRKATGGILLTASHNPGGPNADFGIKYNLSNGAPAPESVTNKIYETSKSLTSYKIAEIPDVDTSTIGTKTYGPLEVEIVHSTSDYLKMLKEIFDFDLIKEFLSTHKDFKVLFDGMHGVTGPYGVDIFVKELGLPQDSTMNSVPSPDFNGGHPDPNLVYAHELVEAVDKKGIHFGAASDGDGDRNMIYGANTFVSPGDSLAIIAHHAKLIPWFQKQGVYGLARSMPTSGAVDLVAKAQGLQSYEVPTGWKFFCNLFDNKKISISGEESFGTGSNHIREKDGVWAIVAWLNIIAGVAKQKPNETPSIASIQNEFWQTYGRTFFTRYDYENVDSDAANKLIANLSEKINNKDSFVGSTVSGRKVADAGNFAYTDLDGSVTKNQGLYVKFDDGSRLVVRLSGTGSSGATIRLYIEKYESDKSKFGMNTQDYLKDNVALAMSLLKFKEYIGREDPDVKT", "experiment": "Covalent modification, intact protein mass spectrometry, AfPGMC353∗", "type": "binding", "details": "AfPGMC353∗:ISFP1 1:20; single adduct on C353", "procedure": "(§1) PGM was dissolved to 20 μM in Hepes buffer (25 mM Hepes–NaOH (pH 7.5), 150 mM NaCl) and incubated with compound (protein:compound 1:20; 2% (v/v) DMSO) at 20 °C for 10 min (for AfPGM) or 4 °C overnight (for AfPGMC353∗). Excess compound molecules were removed using desalting column (CentriPure P2, Generon). PGM (20 μM) incubated with DMSO at the same condition was utilized as a control. The removal of isothiazolone adducts was carried out through the incubation with DTT (10 mM) at 20 °C for 10 min. DTT was removed using a desalting column (CentriPure P2, Generon). The ring-opened isothiazolone protein modification was confirmed using intact protein mass spectrometry."}, "AfPGM [2]": {"target": "T2, AfPGM (Aspergillus fumigatus, UniProt Q4WY53)", "T2 construct": "Full length AfPGM; 6His-GST (N, cleaved yes); made in house; host or cells: E. coli BL21 (DE3) pLysS", "experiment": "biochemical", "procedure": "(§2) The reaction mixture contained MOPS–NaOH (pH 7.4; 50 mM), MgSO4 (1.5 mM), NADP^+ (1 mM), G6PDH (0.01 U) from L. mesenteroides, Glc-1P (500 μM), Glc-1,6-2P (50 μM), and enzyme (5 nM). The reaction was carried out at 25 °C for 6 min in a total volume of 100 μl. Formation of NADPH was detected in real-time (every 1.5 min), measuring fluorescence signal (excitation at 360 nm; emission at 460 nm). To measure the inhibitory activity, compounds with different concentrations (3% (v/v) DMSO) were added to the reaction system. IC50 values were calculated using the product (NADPH) concentration at 6 min with 500 μM Glc-1P.\n(§3) Figure S11: Representative enzyme activity assays for PGMs. Error bars represent standard deviation of three determinations. Panel A and B show the time course of PGMs and PGM mutants in which sugar recognition glutamates are mutated to glutamine. […] Values in parentheses indicate the time at which DTT (1 mM) was added."}, "AfPGM [3]": {"target": "T2, AfPGM", "experiment": "Covalent modification, intact protein mass spectrometry, AfPGM", "type": "binding", "details": "AfPGM:ISFP1 1:20; one adduct per protein molecule; reversed by DTT", "procedure": "as §1"}, "CaPGMC359S": {"target": "T3, CaPGMC359S (Candida albicans, UniProt A0A1D8PSA9, C359S)", "T3 sequence (A0A1D8PSA9 1-560 C359S)": "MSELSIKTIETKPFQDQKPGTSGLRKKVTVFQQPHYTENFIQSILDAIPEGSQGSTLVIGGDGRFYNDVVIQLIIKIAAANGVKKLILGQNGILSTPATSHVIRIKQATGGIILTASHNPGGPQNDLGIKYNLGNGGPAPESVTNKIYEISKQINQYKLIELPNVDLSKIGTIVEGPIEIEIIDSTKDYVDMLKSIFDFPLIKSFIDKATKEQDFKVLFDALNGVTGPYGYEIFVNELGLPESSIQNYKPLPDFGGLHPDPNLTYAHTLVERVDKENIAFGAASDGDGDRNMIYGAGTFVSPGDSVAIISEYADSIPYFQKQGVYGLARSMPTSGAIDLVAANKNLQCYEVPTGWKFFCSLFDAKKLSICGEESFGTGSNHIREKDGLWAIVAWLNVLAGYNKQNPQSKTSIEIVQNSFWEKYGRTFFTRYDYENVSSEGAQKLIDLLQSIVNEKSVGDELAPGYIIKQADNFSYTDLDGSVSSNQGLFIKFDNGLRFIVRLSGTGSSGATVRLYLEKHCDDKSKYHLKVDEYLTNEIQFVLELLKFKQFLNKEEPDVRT", "experiment": "G6PDH coupled assay for PGM, CaPGM C359S mutant", "type": "biochemical", "details": "5 nM enzyme, no preincubation", "procedure": "as §2"}, "AfPGM [4]": {"target": "T2, AfPGM", "experiment": "Biolayer interferometry fragment binding", "details": "0 to 500 µM", "procedure": "Amino groups of lysine side chains in PGM were biotinylated (EZ-Link NHSPEG4-Biotin) with one-to-one stoichiometry (one adduct per protein molecule). Biotinylated protein molecules were loaded on streptavidin-immobilized sensors (Super Streptavidin Biosensor). BLI was carried out using an Octet Red 384 instrument (ForteBio). Screening cycles included the baseline phase (protein was incubated for 60 s in screening buffer [25 mM Hepes–NaOH (pH 7.5), 150 mM NaCl, 2% DMSO (v/v]), the association phase (protein was incubated for 60 s in wells containing 200 μM fragment compounds dissolved in the screening buffer), and the dissociation phase (protein was incubated for 60 s in the screening buffer without any fragment compounds). Sensors blocked by biocytin were utilized as a control. Fragment compounds were purchased from Maybridge (1000 fragment compounds). Fragment compounds whose signal values were higher than the median value plus three times robust SD were considered as hits. The confirmation of hits was carried out using dose-response assays. Briefly, a BLI assay was carried out with each hit in a series of concentrations (from 0 to 500 μM). Running cycles included the baseline phase (60 s in the screening buffer), the association phase (120 s in the screening buffer with fragment compounds), and the dissociation phase (120 s in the screening buffer without compounds). […]"}, "A. fumigatus": {"tested_on": "A. fumigatus", "experiment": "Growth inhibition (MIC) of A. fumigatus", "type": "cell-based", "details": "Aspergillus fumigatus; preliminary experiments", "description": "Figure S12: Limited correlation between minimal inhibitory concentrations (MIC) and IC50 values of isothiazolone derivatives against AfPGM. […] The R^2 value of linear correlation is 0.15."}, "AfPGM [5]": {"target": "T2, AfPGM", "experiment": "AfPGM enzyme kinetics in the presence of ISFP1 (G6PDH coupled assay)", "type": "biochemical", "procedure": "As previously described, two speculated mechanisms, perturbing substrate binding or phosphoryl transfer, have been proposed based on the complex structure of CaPGM-ISFP1. […] As such, the inhibitory mechanism is likely to be a consequence of slowing the rate of phosphoryl transfer.\nas §2, §3"}, "AfPGMC353V": {"target": "T4, AfPGMC353V (Aspergillus fumigatus, UniProt Q4WY53, C353V)", "T4 construct": "Full length AfPGM; 6His-GST (N, cleaved yes); made in house; host or cells: E. coli BL21 (DE3) pLysS", "T4 sequence (Q4WY53 whole entry C353V)": "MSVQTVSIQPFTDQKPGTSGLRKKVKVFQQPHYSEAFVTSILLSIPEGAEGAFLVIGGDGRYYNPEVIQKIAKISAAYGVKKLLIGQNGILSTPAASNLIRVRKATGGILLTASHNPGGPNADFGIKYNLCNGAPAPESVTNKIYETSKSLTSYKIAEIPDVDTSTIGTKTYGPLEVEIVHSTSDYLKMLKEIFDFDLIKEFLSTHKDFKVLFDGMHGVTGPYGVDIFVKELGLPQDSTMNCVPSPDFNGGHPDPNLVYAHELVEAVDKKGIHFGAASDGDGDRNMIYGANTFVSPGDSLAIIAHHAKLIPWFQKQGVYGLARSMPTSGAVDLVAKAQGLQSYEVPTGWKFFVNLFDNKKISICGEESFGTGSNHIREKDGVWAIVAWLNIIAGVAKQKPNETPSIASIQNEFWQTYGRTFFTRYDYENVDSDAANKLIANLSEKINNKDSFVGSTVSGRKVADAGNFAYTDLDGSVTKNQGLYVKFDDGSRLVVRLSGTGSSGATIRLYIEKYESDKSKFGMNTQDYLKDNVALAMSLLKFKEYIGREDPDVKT", "experiment": "G6PDH coupled assay for PGM, AfPGM C353V mutant", "type": "biochemical", "details": "5 nM enzyme, no preincubation", "procedure": "as §2"}, "AfPGMC353∗ [6]": {"target": "T1, AfPGMC353∗", "experiment": "G6PDH coupled assay for PGM, AfPGMC353∗ variant (C353 the sole cysteine)", "type": "biochemical", "details": "IC50 AfPGMC353, AfPGMC353∗ (all other cysteines mutated to serine) 5 nM, no preincubation", "procedure": "as §2"}, "HsPGM": {"target": "T5, HsPGM (Homo sapiens, UniProt P36871)", "T5 construct": "Full length HsPGM; 6His-GST (N, cleaved yes); made in house; host or cells: E. coli BL21 (DE3) pLysS (same protocol as AfPGM)", "T5 sequence (P36871 1-562)": "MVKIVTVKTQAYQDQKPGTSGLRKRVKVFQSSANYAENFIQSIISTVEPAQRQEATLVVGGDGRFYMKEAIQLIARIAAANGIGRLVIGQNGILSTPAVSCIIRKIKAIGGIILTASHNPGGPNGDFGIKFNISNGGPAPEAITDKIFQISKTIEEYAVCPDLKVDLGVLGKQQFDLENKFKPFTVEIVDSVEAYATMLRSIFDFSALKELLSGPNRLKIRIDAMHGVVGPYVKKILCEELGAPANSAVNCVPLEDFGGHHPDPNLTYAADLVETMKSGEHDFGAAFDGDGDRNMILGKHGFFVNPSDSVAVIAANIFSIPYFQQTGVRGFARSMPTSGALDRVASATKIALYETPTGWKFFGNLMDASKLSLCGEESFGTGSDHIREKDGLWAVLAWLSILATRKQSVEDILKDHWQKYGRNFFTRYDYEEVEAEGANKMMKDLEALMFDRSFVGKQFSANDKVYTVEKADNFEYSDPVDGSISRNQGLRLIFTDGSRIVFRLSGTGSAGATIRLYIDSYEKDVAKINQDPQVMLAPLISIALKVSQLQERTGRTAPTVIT", "experiment": "G6PDH coupled assay for PGM, HsPGM", "type": "biochemical", "procedure": "as §2, §3"}, "CaPGM": {"target": "T6, CaPGM (Candida albicans, UniProt A0A1D8PSA9)", "T6 sequence (A0A1D8PSA9 1-560)": "T3 sequence (A0A1D8PSA9 1-560 C359S)", "experiment": "G6PDH coupled assay for PGM, WT CaPGM", "type": "biochemical", "details": "5 nM enzyme, no preincubation", "procedure": "as §2"}, "[7]": {"details": "50 µM ISFP1 preincubated 15 min with 5 nM enzyme, DTT 1 mM (Fig. S11G)"}}, "note": "“Also recorded” adds a separate entry of the source. Like-named read-outs stand apart in the source and are kept apart here.", "data": [{"smiles": "O=c1ccsn1-c1cccc(Cl)c1F", "note": "[ISFP1]", "values": [{"measurement": "Increase in protein mass after incubation with compound", "setting": "AfPGMC353∗ [1]", "result": 232, "unit": "Da"}, {"measurement": "Rescue of AfPGM activity by DTT after inhibition", "setting": "AfPGM [2]; [7]", "result": "rescued by the addition of DTT"}, {"measurement": "IC50", "setting": "AfPGM [2]; WT AfPGM 5 nM, no preincubation, 500 μM Glc-1P", "result": 2, "unit": "µM"}, {"measurement": "Increase in protein mass after incubation with compound", "setting": "AfPGM [3]", "result": 232, "unit": "Da"}, {"measurement": "IC50", "setting": "CaPGMC359S", "result": "> 400", "unit": "µM"}, {"measurement": "IC50 CaPGM C359S mutant", "setting": "CaPGMC359S", "result": "No inhibition"}, {"measurement": "Binding to AfPGM by BLI", "setting": "AfPGM [4]", "result": "bound to AfPGM in a concentration-dependent manner"}, {"measurement": "MIC", "setting": "A. fumigatus", "result": 10, "unit": "µg/mL"}, {"measurement": "Decrease of AfPGM kcat", "setting": "AfPGM [5]; 20 μM ISFP1", "result": 10, "unit": "fold"}, {"measurement": "Change of AfPGM Km", "setting": "AfPGM [5]; in the presence of ISFP1", "result": "remains at the same level"}, {"measurement": "Inhibition of AfPGM C353V mutant", "setting": "AfPGMC353V", "result": "does not inhibit; also recorded: not inhibited"}, {"measurement": "IC50", "setting": "AfPGMC353∗ [6]", "result": 3, "unit": "µM"}, {"measurement": "Rescue of HsPGM activity by DTT after inhibition", "setting": "HsPGM; [7]", "result": "could not be rescued by DTT treatment"}, {"measurement": "IC50", "setting": "HsPGM; IC50 HsPGM, HsPGM 5 nM, no preincubation, > values: highest concentration at which the compound can solubilize", "result": "80 ± 2", "unit": "µM"}, {"measurement": "IC50", "setting": "HsPGM; enzyme preincubated with compound for 15 min (Fig. S11E, F), read-out: IC50 HsPGM after preincubation", "result": 7.5, "unit": "µM"}, {"measurement": "IC50", "setting": "CaPGM", "result": 5, "unit": "µM"}]}]}
